Counter-ions that a name gives are not always drawn.
Key:
[1] = molecular target: T1, 5-HT1A (Homo sapiens, UniProt P08908); assay: 5-HT1A receptor binding, [3H]DPAT; details: radioligand [3H]DPAT
T1 sequence (P08908 1-422): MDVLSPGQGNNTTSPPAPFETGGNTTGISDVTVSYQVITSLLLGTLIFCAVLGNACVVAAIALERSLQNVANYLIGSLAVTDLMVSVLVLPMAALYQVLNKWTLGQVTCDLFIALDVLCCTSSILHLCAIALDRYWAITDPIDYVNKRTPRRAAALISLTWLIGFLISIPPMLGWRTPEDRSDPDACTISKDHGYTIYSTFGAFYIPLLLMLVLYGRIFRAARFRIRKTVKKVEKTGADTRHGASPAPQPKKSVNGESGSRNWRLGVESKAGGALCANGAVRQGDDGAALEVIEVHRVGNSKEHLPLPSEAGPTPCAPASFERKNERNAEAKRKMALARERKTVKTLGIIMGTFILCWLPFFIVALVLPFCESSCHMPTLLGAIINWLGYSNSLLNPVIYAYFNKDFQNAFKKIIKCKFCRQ

Structure (SMILES)	melting point	further results
Fc1ccc2[nH]cc(CC3CCN(CCOc4cccc5[nH]ccc45)CC3)c2c1 (as salt: hydrochloride) (hydrate or solvate) [Example 1, 5-Fluoro-3-{1-[2-(1H-indol-4-yloxy)ethyl]-piperidin-4-ylmethyl}-1H-indole]	215 °C (dec.)	
CC(CN1CCC(Cc2c[nH]c3ccc(F)cc23)CC1)Oc1cccc2[nH]ccc12 (stereo not shown) (as salt: hydrochloride) [Example 2, 5-Fluoro-3-[[1-[2-(1H-indol-4-yloxy)propyl]-4-piperidinyl]methyl]-1H-indole]	130 to 132 °C	
Fc1ccc2[nH]cc(CC3CCN(CCOc4cccc5[nH]ccc45)CC3)c2c1 [Example 1, 5-Fluoro-3-{1-[2-(1H-indol-4-yloxy)ethyl]-piperidin-4-ylmethyl}-1H-indole]		Ki [1]: 47 nM
CC(CN1CCC(Cc2c[nH]c3ccc(F)cc23)CC1)Oc1cccc2[nH]ccc12 (stereo not shown) [Example 2, 5-Fluoro-3-[[1-[2-(1H-indol-4-yloxy)propyl]-4-piperidinyl]methyl]-1H-indole]		5-HT1A [3H]DPAT, percent at 100 nM ([1]; @ 100 nM): 14% @

Source: patent publication US6489342B2, “Aryloxy piperidinyl indoles for treating depression” (Wyeth, priority 2000, dated 2002)
